Assay results from patent US20230053540A1, “TREATMENT OF LIVER INJURY” (Massachusetts Institute of Technology, priority 2019, published 2023).

Test system: hepatocytes
Assay: Seq-Well scRNA-Seq of hepatocytes after APAP overdose (signature scores, DEG vs untreated)
Format: in vivo, mouse
Settings: A6 vs UT

CC(=O)Nc1ccc(O)cc1 [APAP, acetaminophen]
Ash11 A6logFC: 0.2657
Asl avg_logFC: 0.5586
Atf4 A6logFC: 0.3411
Atf6 A6logFC: 0.3778
Atox1 avg_logFC: −0.4462
Atox1 pct.1: 0.382
Atp1a1 avg_logFC: 0.4191
Atp1a1 pct.1: 0.53
Atp1b1 A6logFC: 0.3702
Atp2a2 avg_logFC: 0.495
Atp2b1 A6logFC: 0.3321
Atp5e avg_logFC: −0.6502
Atp5f1 avg_logFC: −0.5171
Atp5f1 pct.1: 0.69
Atp5j2 avg_logFC: −0.5131
Atp5j2 pct.1: 0.606
Atp5k avg_logFC: −0.4773
Atp5k pct.1: 0.368
Atp13a3 avg_logFC: 0.3945
Atp13a3 pct.1: 0.532
Atp5h avg_logFC: −0.6398
B2m avg_logFC: −0.3304
B2m pct.1: 0.871
B4galt5 avg_logFC: 0.4763
BC005537 A6logFC: 0.3543
Bach1 avg_logFC: 0.8323
Bbox1 avg_logFC: −0.4082
Bbox1 pct.1: 0.308
Bc1af1 A6logFC: 0.2685
Bcl2l1 avg_logFC: 0.7751
Bcl3 avg_logFC: 0.289
Bcl3 pct.1: 0.277
Bclaf1 avg_logFC: 0.2685
Bclaf1 pct.1: 0.372
Bdh1 avg_logFC: −0.2936
Bdh1 pct.1: 0.315
Bdhl A6logFC: −0.2936
Bet1 A6logFC: −0.2966
Birc6 A6logFC: 0.3444
Birc6 avg_logFC: 0.3444
Birc6 pct.1: 0.446
Blvrb avg_logFC: −0.5451
Blvrb pct.1: 0.286
Bphl avg_logFC: −0.4075
Bphl pct.1: 0.339
Brd2 A6logFC: 0.5715
Brd2 avg_logFC: 0.5715
Brd2 pct.1: 0.542
Bst2 A6logFC: −0.3156
Btaf1 A6logFC: 0.2755
Btaf1 avg_logFC: 0.2755
Btaf1 pct.1: 0.284
Btg1 avg_logFC: 0.458
Btg1 pct.1: 0.356
Btg2 avg_logFC: 0.8321
Bzw1 avg_logFC: 0.2948
Bzw1 pct.1: 0.475
C1qa avg_logFC: 0.5148
C1qa pct.1: 0.174
C1qc avg_logFC: 0.5861
C1qc pct.1: 0.172
C8g avg_logFC: −0.6545
C1d A6logFC: −0.2553
C1d avg_logFC: −0.2553
C1d pct.1: 0.208
C230081A13Rik avg_logFC: 0.427
Cald1 avg_logFC: 0.3737
Cald1 pct.1: 0.766
Cap1 A6logFC: 0.3251
Cap1 avg_logFC: 0.3251
Cap1 pct.1: 0.356
Car3 avg_logFC: −1.036
Car5a A6logFC: −0.3088
Cbr1 avg_logFC: 0.2847
Cbr1 pct.1: 0.494
Ccbl1 avg_logFC: −0.3649
Ccbl1 pct.1: 0.205
Ccdc50 A6logFC: 0.2858
Ccdc50 avg_logFC: 0.2858
Ccdc50 pct.1: 0.401
Ccl6 avg_logFC: 0.7891
Ccnl1 A6logFC: 0.2566
Ccnl1 avg_logFC: 0.2566
Ccnl1 pct.1: 0.351
Ccs avg_logFC: −0.4267
Ccs pct.1: 0.42
Cd5l avg_logFC: 0.6935
Cd14 avg_logFC: 0.3621
Cd44 avg_logFC: 0.3037
Cd44 pct.1: 0.115
Cd53 avg_logFC: 0.2656
Cd53 pct.1: 0.103
Cd74 avg_logFC: 0.4539
Cd74 pct.1: 0.155
Cd97 avg_logFC: 0.3458
Cd97 pct.1: 0.115
Cd163 avg_logFC: 0.4408
Cd163 pct.1: 0.146
Cd302 avg_logFC: −0.5499
Cdh1 A6logFC: 0.2697
Cdh1 avg_logFC: 0.2697
Cdh1 pct.1: 0.327
Cdkn1a avg_logFC: 1.215
Cebpa avg_logFC: −0.3916
Cebpa pct.1: 0.442
Cela1 A6logFC: −0.2723
Cep85 A6logFC: 0.2839
Cep85 avg_logFC: 0.2839
Cep85 pct.1: 0.313
Cers6 avg_logFC: 0.5328
Ces3a avg_logFC: −0.5253
Ces3b avg_logFC: −0.3664
Ces3b pct.1: 0.57
Cfhr1 A6logFC: −0.3253
Cfp avg_logFC: 0.3562
Cfp pct.1: 0.143
Chac2 avg_logFC: −0.2865
Chac2 pct.1: 0.057
Chchd1 avg_logFC: −0.4398
Chchd1 pct.1: 0.21
Chchd2 avg_logFC: −0.5525
Chchd10 avg_logFC: −0.4019
Chchd10 pct.1: 0.802
Chd1 avg_logFC: 0.3788
Chd1 pct.1: 0.377
Chic2 avg_logFC: 0.4198
Chic2 pct.1: 0.37
Chka avg_logFC: 1.375
Chmp4b A6logFC: 0.3002
Chuk A6logFC: 0.3724
Cidec avg_logFC: 0.2994
Cldn2 A6logFC: −0.2511
Cldn14 avg_logFC: 0.3645
Cldn14 pct.1: 0.32
Clec4f avg_logFC: 1.108
Clec4d avg_logFC: 0.2636
Clec4d pct.1: 0.107
Clic4 A6logFC: 0.2998
Clic4 avg_logFC: 0.2998
Clic4 pct.1: 0.368
Clqb avg_logFC: 0.6817
Cltc avg_logFC: 0.785
Cmbl avg_logFC: −0.4427
Cmbl pct.1: 0.415
Cml1 avg_logFC: −0.6142
Coa6 avg_logFC: −0.4114
Coa6 pct.1: 0.15
Coasy A6logFC: −0.2534
Coasy avg_logFC: −0.2534
Coasy pct.1: 0.327
Commd3 A6logFC: −0.2656
Commd3 avg_logFC: −0.2656
Commd3 pct.1: 0.274
Commd6 avg_logFC: −0.3645
Commd6 pct.1: 0.172
Cox4i1 avg_logFC: −0.516
Cox5b avg_logFC: −0.4988
Cox5b pct.1: 0.425
Cox6a1 avg_logFC: −0.4872
Cox6a1 pct.1: 0.675
Cox6c avg_logFC: −0.8443
Cox7a2 avg_logFC: −0.6503
Cox7b avg_logFC: −0.6422
Cp avg_logFC: 0.2541
Cp pct.1: 0.89
Creb3l2 avg_logFC: 0.4272
Crp avg_logFC: −0.5069
Crp pct.1: 0.477
Csad avg_logFC: −0.5598
Csad pct.1: 0.473
Csrp3 A6logFC: −0.294
Ctnnd1 A6logFC: 0.2518
Ctnnd1 avg_logFC: 0.2518
Ctnnd1 pct.1: 0.358
Ctsb A6logFC: 0.5213
Ctsb avg_logFC: 0.5213
Ctsb pct.1: 0.804
Ctsc A6logFC: 0.361
Ctsl avg_logFC: 0.5301
Ctss avg_logFC: 0.7642
Cu11 A6logFC: 0.2592
Cu13 A6logFC: 0.2788
Cul1 avg_logFC: 0.2592
Cul1 pct.1: 0.425
Cul3 avg_logFC: 0.2788
Cul3 pct.1: 0.415
Cxadr avg_logFC: 0.6985
Cxcl12 avg_logFC: −0.3058
Cxcl12 pct.1: 0.251
Cyb5 avg_logFC: −0.7102
Cybb A6logFC: 0.3778
Cyp4a10 avg_logFC: 0.4566
Cyp4a10 pct.1: 0.687
Cyp4a14 avg_logFC: 1.122
Cyp4f15 A6logFC: −0.2998
D10Wsu102e avg_logFC: 0.5878
Dbi avg_logFC: −0.7164
Dcaf11 avg_logFC: −0.2817
Dcaf11 pct.1: 0.446
Dcxr avg_logFC: −0.4409
Dcxr pct.1: 0.37
Ddah1 A6logFC: −0.312
